The NIST ThermoML archive (doi:10.1021/je050165t)
Numbers after ± are expanded uncertainties.

What was measured:
[1] = 101 kPa, Liquid
[2] = xn = mol fraction of the nth substance listed; details: 101 kPa, Liquid, x2 = 0

## CC#N [acetonitrile]
[1]; 298.15 K
  mass density: 776.533 ± 1.9 kg/m3
  speed of sound: 1278.6 ± 5.5 m/s
[1]; 303.15 K
  mass density: 771.116 ± 1.9 kg/m3
  speed of sound: 1258.7 ± 5.5 m/s
[1]; 308.15 K
  mass density: 765.66 ± 2 kg/m3
  speed of sound: 1238.7 ± 5.4 m/s
[1]; 313.15 K
  mass density: 760.162 ± 2 kg/m3
  speed of sound: 1218.5 ± 5.3 m/s
[1]; 318.15 K
  mass density: 754.462 ± 2 kg/m3
  speed of sound: 1198.3 ± 5.3 m/s

## CC#N [acetonitrile] + CCCCn1cc[n+](C)c1.F[P-](F)(F)(F)(F)F
[2]; 298.15 K
  mass density: 776.533 ± 1.9 kg/m3
  speed of sound: 1278.6 ± 5.5 m/s
[2]; 303.15 K
  mass density: 771.116 ± 1.9 kg/m3
  speed of sound: 1258.7 ± 5.5 m/s
[2]; 308.15 K
  mass density: 765.66 ± 2 kg/m3
  speed of sound: 1238.7 ± 5.4 m/s
[2]; 313.15 K
  mass density: 760.162 ± 2 kg/m3
  speed of sound: 1218.5 ± 5.3 m/s
[2]; 318.15 K
  mass density: 754.462 ± 2 kg/m3
  speed of sound: 1198.3 ± 5.3 m/s

## CO [methanol]
[1]; 298.15 K
  mass density: 786.531 ± 1.8 kg/m3
  speed of sound: 1102.7 ± 5 m/s
[1]; 303.15 K
  mass density: 781.808 ± 1.9 kg/m3
  speed of sound: 1086.4 ± 4.9 m/s
[1]; 308.15 K
  mass density: 777.066 ± 1.9 kg/m3
  speed of sound: 1070.1 ± 4.9 m/s
[1]; 313.15 K
  mass density: 772.283 ± 1.9 kg/m3
  speed of sound: 1054 ± 4.8 m/s
[1]; 318.15 K
  mass density: 767.474 ± 2 kg/m3
  speed of sound: 1037.9 ± 4.8 m/s

## CO [methanol] + CCCCn1cc[n+](C)c1.F[P-](F)(F)(F)(F)F
[2]; 298.15 K
  mass density: 786.531 ± 1.8 kg/m3
  speed of sound: 1102.7 ± 5 m/s
[2]; 303.15 K
  mass density: 781.808 ± 1.9 kg/m3
  speed of sound: 1086.4 ± 4.9 m/s
[2]; 308.15 K
  mass density: 777.066 ± 1.9 kg/m3
  speed of sound: 1070.1 ± 4.9 m/s
[2]; 313.15 K
  mass density: 772.283 ± 1.9 kg/m3
  speed of sound: 1054 ± 4.8 m/s
[2]; 318.15 K
  mass density: 767.474 ± 2 kg/m3
  speed of sound: 1037.9 ± 4.8 m/s
